Measured values reported in patent publication US20240360361A1, “PIPERAZINE BIS-UREA AND BIS-THIOUREA-BASED CORROSION INHIBITOR COMPOUNDS FOR STEEL PROTECTION” (QATAR UNIVERSITY, priority 2023, published 2024).
“And” between values parts separate entries of the source, which are not always exact repeats. Identical values can stand only once.

Experiments:
[1] = Tafel extrapolation of C-steel in 5M HCl, three-electrode cell
Description: (§1) Corrosion inhibition efficiency (IE % or r %) is a measure of the efficiency of an inhibitor to effectively decrease a corrosion rate. Corrosion inhibition efficiency may be measured with the Tafel extrapolation of potentiodynamic polarization (PDP).
(§2) Electrochemical experiments were carried out using the three-electrode cell assembly (FIG. 4). Tafel and AC impedance measurements were obtained to elucidate the corrosion mechanisms and understand the interactions at the solution-surface interface. The effect of adding 10 to 200 ppm Inhibitor 2 on the C-steel corrosion in 5M HCl solution was determined by AC impedance and Tafel curves (FIG. 5 and FIG. 6).
(§3) Furthermore, electrochemical parameters describing the kinetics of the corrosion process were acquired following the Tafel extrapolation method to fit the curves of FIG. 6. […] Inhibitor 2 successfully achieved 95% efficiency in the highly corrosive condition of 5M HCl at a tolerable quantity of only 200 ppm concentration.

[2] = AC impedance of C-steel in 5M HCl, three-electrode cell; design: unit not given here; details: 200 ppm inhibitor
Description: as §2, §3

[3] = AC impedance of carbon steel in 1M HCl; details: 200 ppm inhibitor
Excerpt: (§4) To investigate the effect of Inhibitor 1 on corrosion mechanisms, electrochemical measurements were obtained using Tafel and A.C. impedance experiments. FIGS. 1 and 2 show Tafel and AC impedance curves of carbon steel after adding 50 to 200 ppm of Inhibitor 1 to 1M HCl solution.
(§5) The Tafel extrapolation method was used to fit the curves and obtain corrosion parameters. […] The lowest reported current density at 200 ppm concentration was 4.5 μA·cm^−2, […] than 155 μA·cm^−2 recorded for blank 1M HCl. […] The charge transfer resistance reached the maximum of 1430 Ω·cm^2 at 200 ppm and Inhibitor 1 yielded around 93% efficiency after enhancing it from 116 Ω·cm^2 for the blank solution. Inhibitor 1 is a highly efficient corrosion inhibitor even at low concentrations; at concentrations of 50 ppm and 75 ppm, it yielded an 82% and 90% efficiency, respectively.

[4] = Tafel extrapolation (potentiodynamic polarization) of carbon steel in 1M HCl
Excerpt: as §1, §4, §5

## O=[N+]([O-])c1ccc(NC(=S)NCCCN2CCN(CCCNC(=S)Nc3ccc([N+](=O)[O-])cc3)CC2)cc1 [Inhibitor 2]
[1]; 200 ppm inhibitor
  Corrosion rate: 46 mils · year^−1
  Inhibition Efficiency %: 95%
[2]
  Charge transfer resistance (RCT): 83.4

## O=C(NCCCN1CCN(CCCNC(=O)Nc2ccc([N+](=O)[O-])cc2)CC1)Nc1ccc([N+](=O)[O-])cc1 [Inhibitor 1]
[3]
  Charge transfer resistance: 1430 Ω·cm^2
  Efficiency from charge transfer resistance (AC impedance): around 93%
[4]; 50 ppm inhibitor
  % Inhibition Efficiency: 82%
  Corrosion rate: 13 mils · year^−1
  Current density: 29 μA · cm^−2
[4]; 75 ppm inhibitor
  % Inhibition Efficiency: 90%
  Corrosion rate: 6.8 mils · year^−1
  Current density: 15 μA · cm^−2
[4]; 100 ppm inhibitor
  % Inhibition Efficiency: 92%
  Corrosion rate: 5.5 mils · year^−1
  Current density: 12 μA · cm^−2
[4]; 200 ppm inhibitor
  % Inhibition Efficiency: 97%
  Corrosion rate: 2 mils · year^−1 and 2.0 mils · year^−1
  Current density: 4.5 μA · cm^−2
[1]; 10 ppm inhibitor
  Corrosion rate: 360 mils · year^−1
  Current density: 787 μA · cm^−2
  Inhibition Efficiency %: 57%
[1]; 50 ppm inhibitor
  Corrosion rate: 196 mils · year^−1
  Current density: 429 μA · cm^−2
  Inhibition Efficiency %: 77%
[1]; 100 ppm inhibitor
  Corrosion rate: 96 mils · year^−1
  Current density: 209 μA · cm^−2
  Inhibition Efficiency %: 89%
[1]; 200 ppm inhibitor
  Corrosion rate: 46 mils · year^−1
  Current density: 100 μA · cm^−2
  Inhibition Efficiency %: 95%
  Reduction of current density versus 5M HCl blank: about 18.5 fold
